Data: patent publication US20020165213A1, “Estrogen induced neural stem cell increase” (Neurostasis, Inc., priority 2001, published 2002)

Columns and labels:
[1] = system: SVZ proliferating cells; settings: literature (Alonso, 2000; Tanapat et al., 1999); cited from earlier work
[2] = system: proliferating cells in the dentate gyrus; settings: literature (Alonso, 2000; Tanapat et al., 1999); cited from earlier work
[3] = system: embryonic neural stem cells (embryonic day 14); experiment: Estradiol on embryonic neural stem cell cultures: secondary spheres from one single sphere; assay type: cell-based
Description: (§1) To determine if estradiol, the main form of estrogen, increases the number of neural stem cells, the effect of estradiol on neural stem cell cultures was examined. Primary neural stem cells (from embryonic day 14 or adult subventricular zone) were cultured in EGF for seven days to make neurospheres. These primary neurospheres were then dissociated and re-plated in EGF to make pass 1 neurospheres. Pass 1 neurospheres, either embryonic or adult, were dissociated and plated (50,000 cell/ml) in culture medium containing EGF alone or EGF+4 nM estradiol. The culture was allowed to progress for seven days. To determine the number of neural stem cells in each culture, single spheres (15-20 per experiment) were dissociated and plated in single wells of a 96 well plate in culture medium containing EGF only. After 7 days, the number of spheres which came from one single sphere was counted. The following data represent the results from 15-20 replicates.

[4] = system: adult neural stem cells (adult subventricular zone); experiment: Estradiol on adult neural stem cell cultures: secondary spheres from one single sphere; assay type: cell-based
Description: as §1

[5] = EGF+4 nM estradiol versus EGF alone

Molecule	cell proliferation / mitotic activity in the SVZ [1]	cell proliferation in the dentate gyrus [2]	increase in the number of embryonic neural stem cells in response to estradiol [3, 5]	# secondary spheres from one single sphere ([3]; Embryo pass 1 neurospheres, EGF+4 nM estradiol, seven days, single spheres re-plated in EGF only, counted after 7 days, 15-20 replicates)	# secondary spheres from one single sphere ([4]; Adult pass 1 neurospheres, EGF+4 nM estradiol, seven days, single spheres re-plated in EGF only, counted after 7 days, 15-20 replicates)	increase in the number of adult neural stem cells in response to estradiol [4, 5]
Estrogen	no mitotic activity	stimulate proliferation				
C[C@]12CC[C@@H]3c4ccc(O)cc4CC[C@H]3[C@@H]1CC[C@@H]2O [estradiol]			150%	104±15	78±11	35%
C[C@]12C[C@H](O)[C@H]3[C@@H](CCC4=CC(=O)CC[C@@]43C)[C@@H]1CC[C@@H]2C(=O)CO [corticosterone]	no effect	dramatically decreases cell proliferation				
